Measured values: ChEMBL document CHEMBL1201862, “PubChem BioAssay data set” (2004)
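Dose response: 5 concentrations. Exposure: 48 h. Format: 96-well plates. Endpoint: linear interpolation; highest concentration if not reached. Abbreviation: GI50, concentration required for 50% inhibition of growth.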 Activity calls are given as the source filed them. Rule as the data show it: active = GI50 up to about 1.1 µM and inactive = higher.

How the values were obtained:
Experiment in all cases: NCI anticancer screen, dose series, 48 h
DLD-1 = tested on: DLD-1
DMS-273 = tested on: DMS-273
LXFL 529 = tested on: LXFL 529
RXF 631 = tested on: RXF 631
SR = tested on: SR
MDA-MB-435 = tested on: MDA-MB-435
PC-3 = tested on: PC-3
T47D = tested on: T47D
DMS-114 = tested on: DMS-114

SMILES	GI50 (DLD-1)	GI50 (DMS-273)	GI50 (LXFL 529)	GI50 (RXF 631)	GI50 (SR)	GI50 (MDA-MB-435)	GI50 (PC-3)	GI50 (T47D)	GI50 (DMS-114)
Cc1ccc(NC(=O)C2C(=O)N(c3ccc(C)c(C)c3)C(=O)/C2=N\NC(N)=S)cc1C (stereo unspecified)	79.6 µM (inactive)	> 100 µM (inactive)	> 100 µM (inactive)	> 100 µM (inactive)	> 100 µM (inactive)	–	–	–	–
Cc1[nH]c(-c2ccccc2)c(O)c1C(=O)OC1CC(C)CCC1C(C)C (stereo unspecified)	–	–	–	–	8.51 µM (inactive)	14.8 µM (inactive)	13.8 µM (inactive)	13.7 µM (inactive)	–
Nc1nc(SCCc2ccccc2)nc2nc3c(c(-c4ccccc4)c12)CCCC3	–	–	–	–	–	> 100 µM (inactive)	> 100 µM (inactive)	> 100 µM (inactive)	–
O=C(NC(Cc1ccc(I)cc1)C(=O)O)c1cccc(Br)c1 (stereo unspecified)	> 100 µM (inactive)	> 100 µM (inactive)	–	–	–	–	–	–	48 µM (inactive)
Cc1cc([N+](=O)[O-])ccc1/N=N/C(=O)NNc1ccc([N+](=O)[O-])cc1C	–	–	–	–	20.7 µM (inactive)	12.8 µM (inactive)	13.5 µM (inactive)	15.3 µM (inactive)	–
O=S(O)CCCCCSSc1ccccc1	54.8 µM (inactive)	–	17 µM (inactive)	–	8.02 µM (inactive)	–	–	–	23.6 µM (inactive)
C=C1C(O)C2(O)OCC34C(CC5C(C)=CC(=O)C(O)C5(C)C23)OC(=O)C(OC(=O)C/C=C/CCCCCCCC)C14 (stereo unspecified)	0.02 µM (active)	0.02 µM (active)	–	–	–	–	–	–	0.02 µM (active)
CCC1NC(/N=N/c2ccc([N+](=O)[O-])cc2)(P(=O)(OC(C)C)OC(C)C)OC1=O (stereo unspecified)	> 100 µM (inactive)	> 100 µM (inactive)	> 100 µM (inactive)	–	> 100 µM (inactive)	–	–	–	–
CCOC(=O)CC1(c2cccc3ccccc23)OC(=O)c2ccccc21 (stereo unspecified)	8.69 µM (inactive)	41.7 µM (inactive)	51.2 µM (inactive)	–	–	–	–	–	30.6 µM (inactive)
O=C1C[C@H](c2ccccc2)C2(C(=O)c3ccccc3C2=O)[C@H](c2ccccc2)C1	–	–	–	–	> 100 µM (inactive)	> 100 µM (inactive)	> 100 µM (inactive)	> 100 µM (inactive)	–
CC(Oc1ccc(Cl)cc1Cl)C(=O)NN1C(=O)CC(=O)NC1=S (stereo unspecified)	–	–	–	–	> 100 µM (inactive)	> 100 µM (inactive)	> 100 µM (inactive)	31.8 µM (inactive)	–
CON(C)c1nc(N)c(C#N)c(C#N)c1C#N	–	–	–	–	> 10 µM (inactive)	> 10 µM (inactive)	> 10 µM (inactive)	> 10 µM (inactive)	–
C/C(=C\c1ccccc1)n1c(=O)cc(C)n1C	–	–	–	–	–	> 100 µM (inactive)	> 100 µM (inactive)	> 100 µM (inactive)	–
COn1oc(=O)c2ccccc21	–	–	–	–	–	> 100 µM (inactive)	> 100 µM (inactive)	–	–
CSc1nc(NC2OCC(O)C(O)C2O)c(N)c(=O)n1C (stereo unspecified)	> 100 µM (inactive)	> 100 µM (inactive)	–	–	–	–	–	–	–
CC(C)(C)c1ccc2c(c1)OP1(Oc3cccc4cccnc34)(O2)Oc2ccc(C(C)(C)C)cc2O1	3.92 µM (inactive)	3.75 µM (inactive)	–	–	–	–	–	–	0.71 µM (active)
COC(C[C@H]1CCCC[C@]1(O)/C(=C\CO[Si](C(C)C)(C(C)C)C(C)C)Sc1ccccc1)OC	–	–	–	–	20.7 µM (inactive)	33 µM (inactive)	35.6 µM (inactive)	12.6 µM (inactive)	–
O=P(Nc1ccc(Cl)cc1)(Oc1ccccc1)N(CCCl)CCCl (stereo unspecified)	> 100 µM (inactive)	> 100 µM (inactive)	> 100 µM (inactive)	63.7 µM (inactive)	> 100 µM (inactive)	–	–	–	> 100 µM (inactive)
